Measured values published in patent US5843889A, “Glycopeptide antibiotic derivatives” (Eli Lilly and Company, priority 1997, dated 1998).
In brackets after ≈: the same amount, converted by molar mass.

Assays:
Type in all cases: cell-based
[1] = test system: Staphylococcus epidermidis 270; test: MIC, standard broth micro-dilution assay
Method: (§1) The MIC's were determined using a standard broth micro-dilution assay.

[2] = test system: Entercoccus faecalis 2041; test: MIC, standard broth micro-dilution assay
Method: (§2) The formula I compounds have in vitro and in vivo activity against Gram-positive pathogenic bacteria. The MIC's were determined using a standard broth micro-dilution assay.

[3] = test system: Entercoccus gallinarum 245; test: MIC, standard broth micro-dilution assay
Method: as §2

[4] = test system: Staphylococcus aureus SA1199; test: MIC, standard broth micro-dilution assay
Method: as §1

[5] = test system: Entercoccus faecalis 276; test: MIC, standard broth micro-dilution assay
Method: as §2

[6] = test system: Pedicoccus acidilacti; test: MIC, agar dilution on brain-heart infusion agar; conditions: Pedioccccus acidilacti (mean of 10)
[7] = test system: Pediococcus pentosaceus; test: MIC, agar dilution on brain-heart infusion agar; conditions: Pediococcus pentosaceus (mean of 2)
[8] = test system: Leuconostoc lactis; test: MIC, agar dilution on brain-heart infusion agar; conditions: Leuconostoc lactis (mean of 2)
[9] = test system: Leuconostoc mesenteroides; test: MIC, agar dilution on brain-heart infusion agar; conditions: Leuconostoc mesenteroides (mean of 4)
[10] = test system: Lactobacillus confusus; test: MIC, agar dilution on brain-heart infusion agar
[11] = test system: Staphylococcus aureus 491; test: MIC, standard broth micro-dilution assay
Method: as §1

[12] = test system: Staphylococcus aureus S13E
Method: as §1

[13] = test system: Staphylococcus aureus SA1199B
Method: as §1

## CNC(CC(C)C)C(=O)NC1C(=O)NC(CC(N)=O)C(=O)NC2C(=O)NC3C(=O)NC(C(=O)NC(C(=O)O)c4cc(O)cc(O)c4-c4cc3ccc4O)C(OC3CC(C)(N)C(O)C(C)O3)c3ccc(c(Cl)c3)Oc3cc2cc(c3OC2OC(CO)C(O)C(O)C2OC2CC(C)(NCc3ccc(-c4ccccc4C)cc3)C(O)C(C)O2)Oc2ccc(cc2Cl)C1O (stereo not shown) [Compound 209]
[1]
  MIC: 0.125 µg/mL (≈ 0.0705 µM)
[2]
  MIC: ≤ 0.06 µg/mL
[3]
  MIC: 1 µg/mL (≈ 0.564 µM)

## CCOc1ccc2ccccc2c1CNC1(C)CC(OC2C(Oc3c4cc5cc3Oc3ccc(cc3Cl)C(OC3CC(C)(N)C(O)C(C)O3)C3NC(=O)C(NC(=O)C5NC(=O)C(CC(N)=O)NC(=O)C(NC(=O)C(CC(C)C)NC)C(O)c5ccc(c(Cl)c5)O4)c4ccc(O)c(c4)-c4c(O)cc(O)cc4C(C(=O)O)NC3=O)OC(CO)C(O)C2O)OC(C)C1O (stereo not shown) [Compound 60, 2-ethoxy-1-naphthylmethyl]
[4]
  MIC: 0.5 µg/mL (≈ 0.281 µM)
[5]
  MIC: 0.5 µg/mL (≈ 0.281 µM)
[3]
  MIC: 16 µg/mL (≈ 9.01 µM)

## CNC(CC(C)C)C(=O)NC1C(=O)NC(CC(N)=O)C(=O)NC2C(=O)NC3C(=O)NC(C(=O)NC(C(=O)O)c4cc(O)cc(O)c4-c4cc3ccc4O)C(OC3CC(C)(N)C(O)C(C)O3)c3ccc(c(Cl)c3)Oc3cc2cc(c3OC2OC(CO)C(O)C(O)C2OC2CC(C)(NCc3cccc4c3oc3ccccc34)C(O)C(C)O2)Oc2ccc(cc2Cl)C1O (stereo not shown) [Compound 39, 4-[1-oxa]fluorenylmethyl]
[2]
  MIC: ≤ 0.06 µg/mL
[5]
  MIC: ≤ 0.06 µg/mL
[3]
  MIC: ≤ 0.06 µg/mL
[6]
  MIC: 26 µg/mL (≈ 14.7 µM)
[7]
  MIC: 32 µg/mL (≈ 18.1 µM)
[8]
  MIC: 32 µg/mL (≈ 18.1 µM)
[9]
  MIC: 32 µg/mL (≈ 18.1 µM)
[10]
  MIC: 32 µg/mL (≈ 18.1 µM)

## CNC(CC(C)C)C(=O)NC1C(=O)NC(CC(N)=O)C(=O)NC2C(=O)NC3C(=O)NC(C(=O)NC(C(=O)O)c4cc(O)cc(O)c4-c4cc3ccc4O)C(OC3CC(C)(N)C(O)C(C)O3)c3ccc(c(Cl)c3)Oc3cc2cc(c3OC2OC(CO)C(O)C(O)C2OC2CC(C)(NCCCCCCCCOc3ccc(Oc4ccccc4)cc3)C(O)C(C)O2)Oc2ccc(cc2Cl)C1O (stereo not shown) [Compound 202]
[11]
  MIC: 8 µg/mL (≈ 4.24 µM)
[2]
  MIC: 1 µg/mL (≈ 0.529 µM)
[5]
  MIC: 4 µg/mL (≈ 2.12 µM)
[3]
  MIC: 8 µg/mL (≈ 4.24 µM)

## CNC(CC(C)C)C(=O)NC1C(=O)NC(CC(N)=O)C(=O)NC2C(=O)NC3C(=O)NC(C(=O)NC(C(=O)O)c4cc(O)cc(O)c4-c4cc3ccc4O)C(OC3CC(C)(N)C(O)C(C)O3)c3ccc(c(Cl)c3)Oc3cc2cc(c3OC2OC(CO)C(O)C(O)C2OC2CC(C)(NCc3ccc(OCc4ccccc4)c(OC)c3)C(O)C(C)O2)Oc2ccc(cc2Cl)C1O (stereo not shown) [Compound 52, 4-benzyloxy-3-methoxybenzyl]
[2]
  MIC: 0.5 µg/mL (≈ 0.275 µM)
[3]
  MIC: 1 µg/mL (≈ 0.55 µM)
[6]
  MIC: 55 µg/mL (≈ 30.2 µM)
[9]
  MIC: 76 µg/mL (≈ 41.8 µM)

## CNC(CC(C)C)C(=O)NC1C(=O)NC(CC(N)=O)C(=O)NC2C(=O)NC3C(=O)NC(C(=O)NC(C(=O)O)c4cc(O)cc(O)c4-c4cc3ccc4O)C(OC3CC(C)(N)C(O)C(C)O3)c3ccc(c(Cl)c3)Oc3cc2cc(c3OC2OC(CO)C(O)C(O)C2OC2CC(C)(NCc3ccc4ccccc4c3)C(O)C(C)O2)Oc2ccc(cc2Cl)C1O (stereo not shown) [Compound 1, 2-naphthylmethyl]
[5]
  MIC: ≤ 0.06 µg/mL
[3]
  MIC: 4 µg/mL (≈ 2.31 µM)
[6]
  MIC: 18 µg/mL (≈ 10.4 µM)
[7]
  MIC: 23 µg/mL (≈ 13.3 µM)
[8]
  MIC: 23 µg/mL (≈ 13.3 µM)

## 4-[2-[2-thiopropyl]ethoxy]benzyl [Compound 134]
[12]
  MIC: 2 µg/mL
[13]
  MIC: 2 µg/mL
[2]
  MIC: 0.25 µg/mL
[5]
  MIC: 1 µg/mL
[3]
  MIC: 4 µg/mL

## C=CCCCCCCCCCNC1(C)CC(OC2C(Oc3c4cc5cc3Oc3ccc(cc3Cl)C(OC3CC(C)(N)C(O)C(C)O3)C3NC(=O)C(NC(=O)C5NC(=O)C(CC(N)=O)NC(=O)C(NC(=O)C(CC(C)C)NC)C(O)c5ccc(c(Cl)c5)O4)c4ccc(O)c(c4)-c4c(O)cc(O)cc4C(C(=O)O)NC3=O)OC(CO)C(O)C2O)OC(C)C1O (stereo not shown) [Compound 204, 10-undecenyl]
[11]
  MIC: ≤ 0.06 µg/mL
[2]
  MIC: ≤ 0.06 µg/mL
[5]
  MIC: ≤ 0.06 µg/mL

## CNC(CC(C)C)C(=O)NC1C(=O)NC(CC(N)=O)C(=O)NC2C(=O)NC3C(=O)NC(C(=O)NC(C(=O)O)c4cc(O)cc(O)c4-c4cc3ccc4O)C(OC3CC(C)(N)C(O)C(C)O3)c3ccc(c(Cl)c3)Oc3cc2cc(c3OC2OC(CO)C(O)C(O)C2OC2CC(C)(NCc3ccc4c(c3)OCCO4)C(O)C(C)O2)Oc2ccc(cc2Cl)C1O (stereo not shown) [Compound 56]
[4]
  MIC: 0.5 µg/mL (≈ 0.287 µM)
[2]
  MIC: 0.25 µg/mL (≈ 0.144 µM)
[5]
  MIC: 0.25 µg/mL (≈ 0.144 µM)
[3]
  MIC: 16 µg/mL (≈ 9.19 µM)

## 4-[2-chloro-6-fluorobenzyloxy]benzyl [Compound 80]
[12]
  MIC: 1 µg/mL
[13]
  MIC: 1 µg/mL
[2]
  MIC: ≤ 0.06 µg/mL
[5]
  MIC: ≤ 0.06 µg/mL
[3]
  MIC: ≤ 0.06 µg/mL

## 2-[4-chlorophenyl]-6-benzoxazolemethyl [Compound 116]
[12]
  MIC: 1 µg/mL
[13]
  MIC: 0.5 µg/mL
[2]
  MIC: ≤ 0.06 µg/mL
[5]
  MIC: 0.25 µg/mL
[3]
  MIC: 4 µg/mL

## CNC(CC(C)C)C(=O)NC1C(=O)NC(CC(N)=O)C(=O)NC2C(=O)NC3C(=O)NC(C(=O)NC(C(=O)O)c4cc(O)cc(O)c4-c4cc3ccc4O)C(OC3CC(C)(N)C(O)C(C)O3)c3ccc(c(Cl)c3)Oc3cc2cc(c3OC2OC(CO)C(O)C(O)C2OC2CC(C)(NCc3ccc(Oc4ccc([N+](=O)[O-])cc4)cc3)C(O)C(C)O2)Oc2ccc(cc2Cl)C1O (stereo not shown) [Compound 57, 4-[4-nitrophenoxy]benzyl]
[4]
  MIC: 1 µg/mL (≈ 0.55 µM)
[2]
  MIC: ≤ 0.06 µg/mL
[5]
  MIC: 0.5 µg/mL (≈ 0.275 µM)
[3]
  MIC: 2 µg/mL (≈ 1.1 µM)

## CNC(CC(C)C)C(=O)NC1C(=O)NC(CC(N)=O)C(=O)NC2C(=O)NC3C(=O)NC(C(=O)NC(C(=O)O)c4cc(O)cc(O)c4-c4cc3ccc4O)C(OC3CC(C)(N)C(O)C(C)O3)c3ccc(c(Cl)c3)Oc3cc2cc(c3OC2OC(CO)C(O)C(O)C2OC2CC(C)(NCc3cc(OCc4ccccc4)ccc3OC)C(O)C(C)O2)Oc2ccc(cc2Cl)C1O (stereo not shown) [Compound 51, 3-benzyloxy-6-methoxy benzyl]
[2]
  MIC: ≤ 0.06 µg/mL
[5]
  MIC: ≤ 0.06 µg/mL
[3]
  MIC: 1 µg/mL (≈ 0.55 µM)
[6]
  MIC: 87 µg/mL (≈ 47.8 µM)
[7]
  MIC: 91 µg/mL (≈ 50 µM)
[9]
  MIC: 76 µg/mL (≈ 41.8 µM)

## CNC(CC(C)C)C(=O)NC1C(=O)NC(CC(N)=O)C(=O)NC2C(=O)NC3C(=O)NC(C(=O)NC(C(=O)O)c4cc(O)cc(O)c4-c4cc3ccc4O)C(OC3CC(C)(N)C(O)C(C)O3)c3ccc(c(Cl)c3)Oc3cc2cc(c3OC2OC(CO)C(O)C(O)C2OC2CC(C)(NCc3cccc4c3OCO4)C(O)C(C)O2)Oc2ccc(cc2Cl)C1O (stereo not shown) [Compound 58, 2,3-methylenedioxybenzyl]
[4]
  MIC: 1 µg/mL (≈ 0.579 µM)
[2]
  MIC: 0.5 µg/mL (≈ 0.29 µM)
[5]
  MIC: 0.5 µg/mL (≈ 0.29 µM)
[3]
  MIC: 0.5 µg/mL (≈ 0.29 µM)
[6]
  MIC: 55 µg/mL (≈ 31.9 µM)

## CNC(CC(C)C)C(=O)NC1C(=O)NC(CC(N)=O)C(=O)NC2C(=O)NC3C(=O)NC(C(=O)NC(C(=O)O)c4cc(O)cc(O)c4-c4cc3ccc4O)C(OC3CC(C)(N)C(O)C(C)O3)c3ccc(c(Cl)c3)Oc3cc2cc(c3OC2OC(CO)C(O)C(O)C2OC2CC(C)(NCCc3ccccc3OCc3ccccc3)C(O)C(C)O2)Oc2ccc(cc2Cl)C1O (stereo not shown) [Compound 59, 2-benzyloxyphenethyl]
[4]
  MIC: ≤ 0.06 µg/mL
[2]
  MIC: 0.5 µg/mL (≈ 0.277 µM)
[3]
  MIC: 1 µg/mL (≈ 0.555 µM)
